Reference: US9745283B2, “Uracil derivatives as AXL and c-MET kinase inhibitors” (priority 2011, dated 2017)

Assays:
[1] = molecular target: recombinant human baculovirus-expressed AXL (Homo sapiens (Human), UniProt P30530); experiment: AXL Kinase Assay (HTRF KinEASE); format: biochemical; conditions: average of two or more determinations
Experimental: The ability of compounds to inhibit the kinase activity of recombinant human baculovirus-expressed AXL was measured by homogeneous TRF (HTRF) using Cisbio's KinEASE™ assay system in white 384-well Optiplates. Assay buffer contained 1 mM DTT, 2 mM MnCl2, 2% DMSO, […] supplement enzymatic buffer, and 1× enzymatic buffer. A 2× concentration of tyrosine kinase (TK) substrate-biotin/ATP mixture made in assay buffer was added to plates at 10 μL/well using the Multidrop Combi (Thermo Fisher Scientific, Waltham, Mass.). […] Compounds (100 nL), diluted in 100% DMSO on the Biomek FX, (Beckman Coulter, Inc., Brea, Calif.), were transferred to the assay plates using the Biomek FX pintool (2.5% final DMSO in assay). […] Plates were sealed, briefly shaken and incubated at 25° C. for 30 minutes. […] Plates were sealed, briefly shaken and incubated at 25° C. for 1 hour.
Inhibition curves for compounds were generated by plotting percent control activity versus log 10 of the concentration of compound. IC50 values were calculated by nonlinear regression using the sigmoidal dose-response (variable slope) equation in GraphPad Prism as follows: y=bottom+(top−bottom)/(1+10(log IC50−x)*Hill Slope) where y is the % kinase activity at a given concentration of compound, x is the logarithm of the concentration of compound, bottom is the % of control kinase activity at the highest compound concentration tested, and top is the % of control kinase activity at the lowest compound concentration examined. The values for bottom and top were fixed at 0 and 100, respectively.

[2] = molecular target: recombinant human baculovirus-expressed cMET (Homo sapiens (Human), UniProt P08581); experiment: C-MET Kinase Assay (HTRF KinEASE); format: biochemical; conditions: average of two or more determinations; read-out: c-MET IC50
In short: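 HTRF KinEASE format with recombinant human baculovirus-expressed cMET at 8 ng/mL, biotinylated peptide at 0.1 μM and ATP at 0.02 μM. IC50 came from percent control activity versus log concentration, fitted by nonlinear regression to a variable-slope sigmoidal equation with bottom fixed at 0 and top at 100.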

IC50 [1] [nM]	IC50 [2] [nM]	SMILES
< 10	< 10	COc1cc2nccc(Oc3ccc(NC(=O)c4cn(CCn5cccn5)c(=O)n(-c5ccc(F)cc5)c4=O)cc3F)c2cc1OC [Example 63, 3-(4-Fluoro-phenyl)-2,4-dioxo-1-(2-pyrazol-1-yl-ethyl)-1,2,3,4-tetrahydro-pyrimidine-5-carboxylic acid [4-(6,7-dimethoxy-quinolin-4-yloxy)-3-fluoro-phenyl]-amide]
< 10	10 to 100	COc1cc2nccc(Oc3ccc(NC(=O)c4cn(CCc5ccccc5)c(=O)n(-c5ccc(F)cc5)c4=O)cc3F)c2cc1OC [Example 64, 3-(4-Fluoro-phenyl)-2,4-dioxo-1-phenethyl-1,2,3,4-tetrahydro-pyrimidine-5-carboxylic acid [4-(6,7-dimethoxy-quinolin-4-yloxy)-3-fluoro-phenyl]-amide]
< 10	< 10	CCN(CC)C(=O)Cn1cc(C(=O)Nc2ccc(Oc3ccnc4cc(OC)c(OC)cc34)c(F)c2)c(=O)n(-c2ccc(F)cc2)c1=O [Example 66, 1-Diethylcarbamoylmethyl-3-(4-fluoro-phenyl)-2,4-dioxo-1,2,3,4-tetrahydro-pyrimidine-5-carboxylic acid [4-(6,7-dimethoxy-quinolin-4-yloxy)-3-fluoro-phenyl]-amide]
< 10	10 to 100	COc1cc2nccc(Oc3ccc(NC(=O)c4cn(CC(=O)N5CCOCC5)c(=O)n(-c5ccc(F)cc5)c4=O)cc3F)c2cc1OC [Example 67, 3-(4-Fluoro-phenyl)-1-(2-morpholin-4-yl-2-oxo-ethyl)-2,4-dioxo-1,2,3,4-tetrahydro-pyrimidine-5-carboxylic acid [4-(6,7-dimethoxy-quinolin-4-yloxy)-3-fluoro-phenyl]-amide]
< 10	< 10	COc1cc2nccc(Oc3ccc(NC(=O)c4cn(CCN5CCCC5=O)c(=O)n(-c5ccc(F)cc5)c4=O)cc3F)c2cc1OC [Example 68, 3-(4-Fluoro-phenyl)-2,4-dioxo-1-[2-(2-oxo-pyrrolidin-1-yl)-ethyl]-1,2,3,4-tetrahydro-pyrimidine-5-carboxylic acid [4-(6,7-dimethoxy-quinolin-4-yloxy)-3-fluoro-phenyl]-amide]
< 10	< 10	COc1cc2nccc(Oc3ccc(NC(=O)c4cn(CCF)c(=O)n(-c5ccc(F)cc5)c4=O)cc3F)c2cc1OC [Example 69, 1-(2-Fluoro-ethyl)-3-(4-fluoro-phenyl)-2,4-dioxo-1,2,3,4-tetrahydro-pyrimidine-5-carboxylic acid [4-(6,7-dimethoxy-quinolin-4-yloxy)-3-fluoro-phenyl]-amide]
< 10	< 10	COc1cc2nccc(Oc3ccc(NC(=O)c4cn(CC(=O)O)c(=O)n(-c5ccc(F)cc5)c4=O)cc3F)c2cc1OC [Example 71, [5-[4-(6,7-Dimethoxyquinolin-4-yloxy)-3-fluorophenylcarbamoyl]-3-(4-fluorophenyl)-2,4-dioxo-3,4-dihydro-2H-pyrimidin-1-yl]-acetic acid]
< 10	10 to 100	COc1cc2nccc(Oc3ccc(NC(=O)c4cn(Cc5ncco5)c(=O)n(-c5ccc(F)cc5)c4=O)cc3F)c2cc1OC [Example 72, 3-(4-Fluoro-phenyl)-1-oxazol-2-ylmethyl-2,4-dioxo-1,2,3,4-tetrahydro-pyrimidine-5-carboxylic acid [4-(6,7-dimethoxy-quinolin-4-yloxy)-3-fluoro-phenyl]-amide]
< 10	10 to 100	COc1cc2nccc(Oc3ccc(NC(=O)c4cn(CC5CCCO5)c(=O)n(-c5ccc(F)cc5)c4=O)cc3F)c2cc1OC (stereo not drawn) [Example 73, 3-(4-Fluoro-phenyl)-2,4-dioxo-1-(tetrahydro-furan-2-ylmethyl)-1,2,3,4-tetrahydro-pyrimidine-5-carboxylic acid [4-(6,7-dimethoxy-quinolin-4-yloxy)-3-fluoro-phenyl]-amide]
< 10	10 to 100	COc1cc2nccc(Oc3ccc(NC(=O)c4cn(CC5CCOCC5)c(=O)n(-c5ccc(F)cc5)c4=O)cc3F)c2cc1OC [Example 74, 3-(4-Fluoro-phenyl)-2,4-dioxo-1-(tetrahydro-pyran-4-ylmethyl)-1,2,3,4-tetrahydro-pyrimidine-5-carboxylic acid [4-(6,7-dimethoxy-quinolin-4-yloxy)-3-fluoro-phenyl]-amide]
< 10	10 to 100	COc1cc2nccc(Oc3ccc(NC(=O)c4cn(Cc5ccccc5)c(=O)n(-c5ccc(F)cc5)c4=O)cc3F)c2cc1OC [Example 77, 1-Benzyl-3-(4-fluoro-phenyl)-2,4-dioxo-1,2,3,4-tetrahydro-pyrimidine-5-carboxylic acid [4-(6,7-dimethoxy-quinolin-4-yloxy)-3-fluoro-phenyl]-amide]
< 10	10 to 100	COc1cc2nccc(Oc3ccc(NC(=O)c4cn(CCc5ccccc5F)c(=O)n(-c5ccc(F)cc5)c4=O)cc3F)c2cc1OC [Example 78, 3-(4-Fluoro-phenyl)-1-[2-(2-fluoro-phenyl)-ethyl]-2,4-dioxo-1,2,3,4-tetrahydro-pyrimidine-5-carboxylic acid [4-(6,7-dimethoxy-quinolin-4-yloxy)-3-fluoro-phenyl]-amide]
< 10	10 to 100	COc1cc2nccc(Oc3ccc(NC(=O)c4cn(CCc5ccc(F)cc5)c(=O)n(-c5ccc(F)cc5)c4=O)cc3F)c2cc1OC [Example 79, 3-(4-Fluoro-phenyl)-1-[2-(4-fluoro-phenyl)-ethyl]-2,4-dioxo-1,2,3,4-tetrahydro-pyrimidine-5-carboxylic acid [4-(6,7-dimethoxy-quinolin-4-yloxy)-3-fluoro-phenyl]-amide]
< 10	10 to 100	COc1cc2nccc(Oc3ccc(NC(=O)c4cn(CC(=O)N5CCCC5)c(=O)n(-c5ccc(F)cc5)c4=O)cc3F)c2cc1OC [Example 82, 3-(4-Fluoro-phenyl)-2,4-dioxo-1-(2-oxo-2-pyrrolidin-1-yl-ethyl)-1,2,3,4-tetrahydro-pyrimidine-5-carboxylic acid [4-(6,7-dimethoxy-quinolin-4-yloxy)-3-fluoro-phenyl]-amide]
< 10	10 to 100	COc1cc2nccc(Oc3ccc(NC(=O)c4cn(CC(=O)N(C)C)c(=O)n(-c5ccc(F)cc5)c4=O)cc3F)c2cc1OC [Example 83, 1-Dimethylcarbamoylmethyl-3-(4-fluorophenyl)-2,4-dioxo-1,2,3,4-tetrahydro-pyrimidine-5-carboxylic acid [4-(6,7-dimethoxy-quinolin-4-yloxy)-3-fluorophenyl]-amide]
< 10	< 10	COc1cc2nccc(Oc3ccc(NC(=O)c4c[nH]c(=O)n(-c5ccc(F)cc5)c4=O)c(F)c3)c2cc1OC [Example 85, 3-(4-Fluoro-phenyl)-2,4-dioxo-1,2,3,4-tetrahydro-pyrimidine-5-carboxylic acid [4-(6,7-dimethoxy-quinolin-4-yloxy)-2-fluoro-phenyl]-amide]
< 10	10 to 100	COc1cc2nccc(Oc3ccc(NC(=O)c4cn(C)c(=O)n(-c5ccc(F)cc5)c4=O)c(F)c3)c2cc1OC [Example 86, 3-(4-Fluoro-phenyl)-1-methyl-2,4-dioxo-1,2,3,4-tetrahydro-pyrimidine-5-carboxylic acid [4-(6,7-dimethoxy-quinolin-4-yloxy)-2-fluoro-phenyl]-amide]
< 10	10 to 100	CCn1cc(C(=O)Nc2ccc(Oc3ccnc4cc(OC)c(OC)cc34)cc2F)c(=O)n(-c2ccc(F)cc2)c1=O [Example 87, 1-Ethyl-3-(4-fluoro-phenyl)-2,4-dioxo-1,2,3,4-tetrahydro-pyrimidine-5-carboxylic acid [4-(6,7-dimethoxy-quinolin-4-yloxy)-2-fluoro-phenyl]-amide]
< 10	10 to 100	C=CCn1cc(C(=O)Nc2ccc(Oc3ccnc4cc(OC)c(OC)cc34)cc2F)c(=O)n(-c2ccc(F)cc2)c1=O [Example 88, 1-Allyl-3-(4-fluoro-phenyl)-2,4-dioxo-1,2,3,4-tetrahydro-pyrimidine-5-carboxylic acid [4-(6,7-dimethoxy-quinolin-4-yloxy)-2-fluoro-phenyl]-amide]
< 10	10 to 100	CCn1cc(C(=O)Nc2cc(F)c(Oc3ccnc4cc(OC)c(OC)cc34)c(F)c2)c(=O)n(-c2ccc(F)cc2)c1=O [Example 90, 1-Ethyl-3-(4-fluoro-phenyl)-2,4-dioxo-1,2,3,4-tetrahydro-pyrimidine-5-carboxylic acid [4-(6,7-dimethoxy-quinolin-4-yloxy)-3,5-difluoro-phenyl]-amide]

SMILES	IC50 [1] [nM]	IC50 [2] [nM]
COc1cc2nccc(Oc3ccc(NC(=O)c4cn(CCC5OCCO5)c(=O)n(-c5ccc(F)cc5)c4=O)cc3F)c2cc1OC [Example 65, 1-[2-(1,3-Dioxolan-2-yl-ethyl)]-3-(4-fluoro-phenyl)-2,4-dioxo-1,2,3,4-tetrahydro-pyrimidine-5-carboxylic acid [4-(6,7-dimethoxy-quinolin-4-yloxy)-3-fluoro-phenyl]-amide]	< 10	10 to 100
